# In patent publication US20050026866A1 (priority 2002, published 2005):
# Read-outs that look alike come from different tables or passages of the source.
# Key:
# Assay type in all cases: cell-based
# [1] = system: Bordetella attachment and invasion into human melanoma cell line Skmel-23/C22
# Protocol: Bordetella pertussis was cultured for 48-72 h on Bordet-Gengou agar plates (Remel, Inc.) in a 37° C. incubator. Prior to exposure of bacteria to mammalian cells (15-30 minutes), the bacteria were loop-transferred to Luria-Bertani (LB) liquid growth medium and adjusted to a concentration of 10^9 cfu/ml (OD600=0.5). Human Skmel-23/C22 metastatic melanoma cells, normal human melanocytes, or normal human fibroblasts were inoculated into Corning 12 well tissue culture plates (2-4×10^4 cells/well) in antibiotic-free DMEM growth medium supplemented with 10% fetal bovine serum, and placed in a gassed, humidified incubator, at 37° C. After 24 h, melanoma cells were fed with 1 ml fresh medium, and 15-20 h later, Bordetella pertussis strain 536 was added as described below. Potential inhibitors of Bordetella attachment and invasion of melanoma cells were added immediately before, or up to 2 h before addition of bacteria, as noted. […] Melanoma cells were then plated onto Bordet-Gengou agar plates in serial dilutions, incubated at 37° for 4d, and Bordetella pertussis were quantitated by colony counts as ‘colony forming units’ (cfu). […]
# Structural requirements on cancer cells for attachment and invasion of B. pertussis. Quantitative invasion assays were carried out with various additives to investigate structural requirements on human melanoma cells for attachment and invasion of B. pertussis. […]
# [2] = system: SKMel-23 human melanoma cells; settings: L-histidine alone, no B. pertussis strain
# Protocol: Skmel-23/C22 human melanoma cells were cultured 15 h with or without the addition of B. pertussis to the culture medium.
# (§1) Cancer cells tested were human carcinomas of the breast, lung, and kidney, and melanoma. Toxicity of B. pertussis strain 536, but not of Tohama I, was dependent on the simultaneous addition of rich nutrient broth such as Luria-Bertani bacterial growth medium, or amino acid-rich broths such as tryptone or casamino acids. […] The principal active ingredient in these broths was the amino acid histidine. […] Of 18 amino acids tested, only histidine induced a Bordetella-mediated cytotoxic/lytic effect.
# [3] = system: human carcinomas of the breast, lung, and kidney, and melanoma; settings: without bacteria
# Text: as §1
molecule,measurement,setting,value
Arg-Gly-Asp [RGD],Bordetella (cfu/well) (% Control +/− S.D.),"[1]; 0.8 mg/ml, added 2 h prior to bacteria, implied target Arg-Gly-Asp tripeptide sequence",50 ± 5 % Control
N[C@@H](Cc1c[nH]cn1)C(=O)O [L-histidine],melanoma cells/well (24 h post-treatment),[2],1.7 ± .07 × 10^5 melanoma cells/well
same,"melanoma cells/well, % untreated cultures",[2]; 24 h post-treatment,106 % untreated cultures
same,toxicity of histidine alone,[3],no toxicity
C[C@H](O)[C@@H](O)[C@@H](O)[C@H](O)C=O [L-fucose],Bordetella (cfu/well) (% Control +/− S.D.),"[1]; 0.2% wt/vol, added 5 min. prior to bacteria, implied target fucosylated structures",52 ± 14 % Control
